This is an account of results in US8492106B2, “Identification methods for ergothioneine transporter modulators and therapeutic uses thereof” (Universitat Zu Koln, priority 2004, dated 2013).

For one data set, the target named is T1, ETTh (Homo sapiens, UniProt Q9H015).
T1 construct: expressed in transfected cells
T1 sequence (Q9H015 1-551): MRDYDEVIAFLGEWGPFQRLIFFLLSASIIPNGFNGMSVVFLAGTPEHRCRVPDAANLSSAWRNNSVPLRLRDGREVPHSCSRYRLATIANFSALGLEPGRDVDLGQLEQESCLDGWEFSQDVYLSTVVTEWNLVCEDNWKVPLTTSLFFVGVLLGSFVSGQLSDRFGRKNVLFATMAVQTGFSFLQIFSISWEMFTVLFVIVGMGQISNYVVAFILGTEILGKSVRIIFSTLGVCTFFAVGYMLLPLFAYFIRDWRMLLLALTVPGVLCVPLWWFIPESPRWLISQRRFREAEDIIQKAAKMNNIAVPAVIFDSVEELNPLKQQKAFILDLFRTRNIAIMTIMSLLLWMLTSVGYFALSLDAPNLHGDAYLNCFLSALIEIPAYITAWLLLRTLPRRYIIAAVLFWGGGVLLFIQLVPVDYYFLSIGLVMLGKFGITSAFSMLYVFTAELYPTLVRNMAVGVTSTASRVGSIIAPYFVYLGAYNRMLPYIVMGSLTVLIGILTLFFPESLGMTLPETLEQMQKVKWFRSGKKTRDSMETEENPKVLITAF
The experiment in a line: Substrate uptake into 293-FIT-ETTh cells expressing ETTh (LC-MS/MS and radiotracer assays). The settings on record: for Km: read-out: Km (affinity of ETTh). The class given is cell-based. The protocol:
Substrate concentration was 10 μmol/l for all LC-MS/MS assays (gamma-butyryl betaine, N-methyl proline (alias hygric acid), hydroxyproline betaine (alias betonicine), proline betaine (alias stachydrine), and ergothioneine) and 0.1 μmol/l for all radiotracer assays.
(§1) FIG. 3: Determination of Km and Vmax of ergiothioneine transport via ETTh. 293-FIT-ETTh (filled circles) or 293-FIT-NT (open circles) cell monolayers were incubated for 1 min at 37° C. with various ET concentrations in KRH buffer. After thorough washing, cells were lysed with 4 mmol/l HClO4. Lysates were analysed for ET content by LC-MS/MS. Each circle represents a single dish. Uptake into control cells was modeled with a straight line through the origin.
The cDNA of ETTh (EMBL/GenBank accession number Y09881) was inserted into the eukaryotic expression vector pcDNA5/FRT/TO (Invitrogen) to yield pcDNA5/FRT/TO/ETTh. This plasmid was cotransfected together with plasmid pOG44 by lipofection with Tfx-50 (Promega) into Flp-In T-REx 293 cells (Invitrogen; referred to as 293-FIT-NT in the remainder). After antibiotic selection with hygromycin B and blasticidin S, the surviving cells, used as a pool and designated as 293-FIT-ETTh, were assayed for ETT transcripts by Northern analysis.
The cell lines 293-FIT-ETTh and 293-FIT-NT (original cell line, not transfected), grown as monolayers in 6 cm diameter polystyrol dishes and induced with 1 μg/ml doxycycline for 20 h, were incubated for 1 min at 37° C. with 2 ml of a mixture of human plasma (50%) and KRH buffer (50%). KRH buffer (Krebs-Ringer-Henseleit) contains 5.6 mM (+)-Glucose, 125 mM NaCl, 4.8 mM KCl, 1.2 mM KH2PO4, 1.2 mM CaCl2, 1.2 mM MgSO4, and 25 mM HEPES-NaOH pH 7.4. The dishes were rinsed 4 times with 3 ml ice-cold KRH and subsequently incubated with 1 ml of 4 mmol/l HClO4 to release the cell contents. 15 μl of lysate were analyzed by LC-MS (ESI, positive mode) using a Thermo Finnigan TSQ Quantum triple quad mass spectrometer equipped with a Waters Atlantis HILIC silica column (length 100 mm, diameter 3 mm, particle size 5 μm). The solvent for isocratic chromatography (flow rate 250 μl/min) was made of methanol (70%) and 0.1% formic acid (30%). Data sets were compared by LC-MS Difference Shading software (see separate patent application).
A series of compounds structurally related to either stachydrine or carnitine, the key substrate of the related OCTN2 transporter was tested, for transport by ETTh. […] LC-MS/MS determines total cellular content of a particular analyte.

Data set [1] concerns the target T2, carnitine transporter OCTN2 from rat (Rattus norvegicus, UniProt O70594).
T2 sequence (O70594 1-557): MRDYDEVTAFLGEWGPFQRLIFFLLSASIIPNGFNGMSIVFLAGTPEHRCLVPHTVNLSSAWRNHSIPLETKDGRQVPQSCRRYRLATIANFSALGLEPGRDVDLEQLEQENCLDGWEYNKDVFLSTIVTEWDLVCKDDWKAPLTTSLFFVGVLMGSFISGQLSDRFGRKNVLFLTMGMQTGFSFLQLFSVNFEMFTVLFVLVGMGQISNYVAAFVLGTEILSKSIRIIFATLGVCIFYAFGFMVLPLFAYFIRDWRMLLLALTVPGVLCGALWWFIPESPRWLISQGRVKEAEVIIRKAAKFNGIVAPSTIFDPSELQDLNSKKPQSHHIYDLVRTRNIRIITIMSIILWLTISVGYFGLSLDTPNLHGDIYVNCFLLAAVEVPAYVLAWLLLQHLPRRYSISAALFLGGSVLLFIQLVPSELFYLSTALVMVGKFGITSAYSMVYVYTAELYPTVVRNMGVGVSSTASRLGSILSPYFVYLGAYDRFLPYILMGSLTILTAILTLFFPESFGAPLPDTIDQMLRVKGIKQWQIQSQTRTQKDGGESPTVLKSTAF
Put plainly: ET transport by carnitine transporter OCTN2. The class given is cell-based.
Excerpt: If the substrate concentration is much smaller than the affinity of the transporter (=Km), then the clearance is directly proportional to the transport efficiency, defined, by analogy to catalytic efficiency for enzymes, as kcat/Km, where kcat is the turnover number of an individual transporter molecule (note that Vmax=kcat*Etotal, where Etotal is the number of transporter molecules).

The next data set relates to 293-FIT-NT cells. Put plainly: ET uptake into control 293-FIT-NT cells (no ETT expression). It counts as cell-based, human. The method, then: as §1
The nature of data set [2]: Accumulation of ergothioneine in the lens of the eye.
For data set [3] the following is noted: Man, blood; cited from earlier work.
For data set [4] the following is noted: Rat, blood; cited from earlier work.
For data set [5] the following is noted: Rabbit, blood; cited from earlier work.
For data set [6] the following is noted: Guinea Pig, blood; cited from earlier work.
The conditions of data set [7]: Cat, blood; cited from earlier work.
The conditions of data set [8]: Dog, blood; cited from earlier work.
For data set [9] the following is noted: Ox, blood; cited from earlier work.
For data set [10] the following is noted: Pig, blood; cited from earlier work.
For data set [11] the following is noted: Sheep, blood; cited from earlier work.
For data set [12] the following is noted: Fowl, blood; cited from earlier work.
The conditions of data set [13]: cited from earlier work.
For data set [14] the following is noted: in vivo.
Where [15] appears, read: 293-FIT-ETTh cells, 1 min at 37° C., KRH buffer, LC-MS/MS.
Where [16] appears, read: LC-MS/MS assay, substrate 10 μmol/l, 1 min at 37° C.

Structures are written as SMILES. Read-outs that look alike come from different tables or passages of the source.

For `C[N+](C)(C)[C@@H](Cc1c[nH]c(=S)[nH]1)C(=O)[O-]` [ergothioneine, 2-mercaptohistidine trimethylbetaine], the “true clearance (Vmax divided by Km)” value at ETTh (293-FIT-ETTh cells) stood at 190 μl/min/mg protein. In addition, the Vmax at ETTh (setting [15]) is on record as 4.2 nmol/min/mg protein. On ETTh (setting [15]), the Km turned out to be 22 µM. In addition, the “transport by ETTh (in words)” value at ETTh (setting [16]) is listed as “extremely high transport activity”. The “ETTh transports ET better than stachydrine” value on ETTh (transport efficiency, ET versus stachydrine) was determined as 10 fold. Moreover, the “acceptance as substrate by OCTN2” value in [1] is recorded as “did not accept ET as a substrate at all”. Besides, the “slope d of uptake into control cells” value with 293-FIT-NT cells (293-FIT-NT control cells, 1 min at 37° C., KRH buffer) is 0.32 μl/min/mg protein. Further, the “uptake into cells without expression of ETT (in words)” value in the data set on 293-FIT-NT cells (without expression of ETT) is recorded as “virtually no uptake”. Further, the “accumulation in the lens of the eye (in words)” value in [2] was “significant accumulation”. Moreover, the Ergothioneine concentration in data set [3] was 1-4 mg/100 ml blood; in data set [4], 1-6 mg/100 ml blood; in data set [5], 1-10 mg/100 ml blood; in data set [6], 1-4 mg/100 ml blood; in [7], 0.5-2 mg/100 ml blood; in data set [8] it was 3-6 mg/100 ml blood. In addition, the Ergothioneine concentration in data set [9] is 0.5-2 mg/100 ml blood; in data set [10], 3-27 mg/100 ml blood; in [11] it was 2-6 mg/100 ml blood; in data set [12], 2-10 mg/100 ml blood. Also, the “concentration in human and mammalian tissue (estimated)” value in data set [13] was 1000 to 2000 µM.
In the case of `CC[N+](CC)(CC)CC` [TEA, tetraethyl ammonium], on ETTh (radiotracer assay, substrate 0.1 μmol/l), the “transport by ETTh (in words)” value was “negligible”.
As to `C[N+]1(C)C[C@@H](O)C[C@@H]1C(=O)[O-]` [hydroxyproline betaine], on ETTh (setting [16]), the “transport by ETTh (in words)” value is “good substrates”.
As for `C[N+]1(C)CCC[C@H]1C(=O)[O-]` [stachydrine], the Km at ETTh (setting [15]) came out at 300 µM. Also, the “transport by ETTh (in words)” value at ETTh (setting [16]) is listed as “accumulated”; at ETTh (LC-MS/MS assay, substrate 10 μmol/l, 1 min at 37° C., listed as proline betaine), “good substrates”. The plasma levels entry in data set [14] is “about 10 μmol/l”.

The Km is the concentration of substrate that gives half-maximal velocity.
